Target: T1, human FPR2 (Homo sapiens, UniProt P25090)
T1 sequence (P25090 1-351): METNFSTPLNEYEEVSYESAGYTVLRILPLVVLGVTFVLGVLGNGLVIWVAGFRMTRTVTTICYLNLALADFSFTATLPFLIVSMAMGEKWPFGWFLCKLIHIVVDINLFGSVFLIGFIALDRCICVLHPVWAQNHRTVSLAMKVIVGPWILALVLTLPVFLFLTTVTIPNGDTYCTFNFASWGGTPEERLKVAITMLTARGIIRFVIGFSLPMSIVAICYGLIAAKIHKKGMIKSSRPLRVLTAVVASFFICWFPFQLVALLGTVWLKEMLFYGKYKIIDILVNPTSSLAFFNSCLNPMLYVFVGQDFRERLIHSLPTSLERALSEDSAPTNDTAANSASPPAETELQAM
Assay: FPR2 cyclic adenosine monophosphate (cAMP) assay
Format: cell-based
Settings: CHO cells overexpressing human FPR2; forskolin 5 μM; inhibition of cAMP production; HTRF; read-out: hFPR2 cAMP2 EC50
Text: (§1) N-formyl peptide receptors (FPRs) are a family of chemo attractant receptors that facilitate leukocyte response during inflammation. FPRs belong to the seven-transmembrane G protein-coupled receptor superfamily and are linked to inhibitory G-proteins (Gi). Three family members (FPR1, FPR2 and FPR3) have been identified in humans and are predominantly found in myeloid cells with varied distribution and have also been reported in multiple organs and tissues. After agonist binding, the FPRs activate a multitude of physiological pathways, such as intra cellular signaling transduction, Ca^2+ mobilization and transcription. The family interacts with a diverse set of ligands that includes proteins, polypeptides and fatty acid metabolites which activate both pro-inflammatory and pro-resolution downstream responses. FPR2 and FPR1 Cyclic Adenosine Monophosphate (cAMP) Assays were used to measure the in vitro activity of the compounds disclosed in this application.
(§2) FPR2 and FPR1 Cyclic Adenosine Monophosphate (cAMP) Assays. A mixture of forskolin (5 μM final for FPR2 or 10 μM final for FPR1) and IBMX (200 μM final) were added to 384-well Proxiplates (Perkin-Elmer) pre-dotted with test compounds in DMSO (1% final) at final concentrations in the range of 0.020 nM to 100 μM. Chinese Hamster Ovary cells (CHO) overexpressing human FPR1 or human FPR2 receptors were cultured in F-12 (Ham's) medium supplemented with 10% qualified FBS, 250 μg/mL zeocin and 300 μg/mL hygromycin (Life Technologies). Reactions were initiated by adding 2,000 human FPR2 cells per well or 4,000 human FPR1 cells per well in Dulbecco's PBS (with calcium and magnesium) (Life Technologies) supplemented with 0.1% BSA (Perkin-Elmer). The reaction mixtures were incubated for 30 min at rt. The level of intracellular cAMP was determined using the HTRF HiRange cAMP assay reagent kit (Cisbio) according to manufacturer's instruction. Solutions of cryptate conjugated anti-cAMP and d2 flurorophore-labeled cAMP were made in a supplied lysis buffer separately. Upon completion of the reaction, the cells were lysed with equal volume of the d2-cAMP solution and anti-cAMP solution. […] The potency and activity of a compound to inhibit cAMP production was then determined by fitting to a 4-parametric logistic equation from a plot of cAMP level versus compound concentrations.

Point of comparison: `COc1cc(N2CC[C@@H](O)C2)nc(-n2c(=O)c(NC(=O)c3ccc(OC(F)F)cc3)c(-c3c(F)cc(OC)cc3F)n2C)c1` [Example 95, N-[5-(2,6-difluoro-4-methoxyphenyl)-2-{6-[(3R)-3-hydroxypyrrolidin-1-yl]-4-methoxypyridin-2-yl}-1-methyl-3-oxo-2,3-dihydro-1H-pyrazol-4-yl]-4-(difluoromethoxy)benzamide], EC50 8 nM. Against it:
- COc1cc(O)nc(-n2c(=O)c(NC(=O)c3ccc(OC(F)F)cc3)c(-c3c(F)cc(OC)cc3F)n2C)c1 [Example 326, N-(5-(2,6-Difluoro-4-methoxyphenyl)-2-(6-hydroxy-4-methoxypyridin-2-yl)-1-methyl-3-oxo-2,3-dihydro-1H-pyrazol-4-yl)-4-(difluoromethoxy)benzamide] — 7.2-fold higher, 58 nM
- COc1cc(F)c(-c2c(NC(=O)c3ccc(OC(F)F)cc3)c(=O)n(-c3cccc(F)c3C#N)n2C)c(F)c1 [Example 178, N-[2-(2-cyano-3-fluorophenyl)-5-(2,6-difluoro-4-methoxyphenyl)-1-methyl-3-oxo-2,3-dihydro-1H-pyrazol-4-yl]-4-(difluoromethoxy)benzamide] — within 1.5-fold, 6 nM
- COc1cc(N2CC[C@H](F)C2)nc(-n2c(=O)c(NC(=O)c3ccc(OC(F)F)cc3)c(-c3c(F)cc(OC)cc3F)n2C)c1 [Example 98, N-[5-(2,6-difluoro-4-methoxyphenyl)-2-{6-[(3S)-3-fluoropyrrolidin-1-yl]-4-methoxypyridin-2-yl}-1-methyl-3-oxo-2,3-dihydro-1H-pyrazol-4-yl]-4-(difluoromethoxy)benzamide] — within 1.5-fold, 6 nM
- COc1cc(F)c(-c2c(NC(=O)c3ccc(OC(F)F)cc3)c(=O)n(-c3cccc(N4C[C@@H](C)N(C)[C@@H](C)C4)n3)n2C)c(F)c1 [Example 103, N-[5-(2,6-difluoro-4-methoxyphenyl)-1-methyl-3-oxo-2-{6-[(3R,5S)-3,4,5-trimethylpiperazin-1-yl]pyridin-2-yl}-2,3-dihydro-1H-pyrazol-4-yl]-4-(difluoromethoxy)benzamide] — 8-fold lower, 1 nM
- COc1cc(OC)cc(-n2c(=O)c(NC(=O)c3ccc(OC(F)F)cc3)c(-c3c(F)cc(OC)cc3F)n2C)c1 [Example 108] — 2.7-fold lower, 3 nM
- COc1cc(N2CCC(F)(F)C2)nc(-n2c(=O)c(NC(=O)c3ccc(OC(F)F)cc3)c(-c3c(F)cc(OC)cc3F)n2C)c1 [Example 99, N-[5-(2,6-difluoro-4-methoxyphenyl)-2-[6-(3,3-difluoropyrrolidin-1-yl)-4-methoxypyridin-2-yl]-1-methyl-3-oxo-2,3-dihydro-1H-pyrazol-4-yl]-4-(difluoromethoxy)benzamide] — 2-fold lower, 4 nM
- COc1cc(N2CC(OC(C)C)C2)nc(-n2c(=O)c(NC(=O)c3ccc(OC(F)F)cc3)c(-c3c(F)cc(OC)cc3F)n2C)c1 [Example 106, N-[5-(2,6-difluoro-4-methoxyphenyl)-2-{4-methoxy-6-[3-(propan-2-yloxy)azetidin-1-yl]pyridin-2-yl}-1-methyl-3-oxo-2,3-dihydro-1H-pyrazol-4-yl]-4-(difluoromethoxy)benzamide] — 1.6-fold lower, 5 nM
- COc1cc(N2CCN(C)CC2)nc(-n2c(=O)c(NC(=O)c3ccc(OC(F)F)cc3)c(-c3c(F)cc(OC)cc3F)n2C)c1 [Example 101, N-[5-(2,6-difluoro-4-methoxyphenyl)-2-[4-methoxy-6-(4-methylpiperazin-1-yl)pyridin-2-yl]-1-methyl-3-oxo-2,3-dihydro-1H-pyrazol-4-yl]-4-(difluoromethoxy)benzamide] — 2.7-fold lower, 3 nM
- COc1cc(N2C3CCC2CN(C)C3)nc(-n2c(=O)c(NC(=O)c3ccc(OC(F)F)cc3)c(-c3c(F)cc(OC)cc3F)n2C)c1 [Example 105, N-[5-(2,6-difluoro-4-methoxyphenyl)-2-(4-methoxy-6-{3-methyl-3,8-diazabicyclo[3.2.1]octan-8-yl}pyridin-2-yl)-1-methyl-3-oxo-2,3-dihydro-1H-pyrazol-4-yl]-4-(difluoromethoxy)benzamide] — 8-fold lower, 1 nM
- COc1cc(N2CCCC2)nc(-n2c(=O)c(NC(=O)c3ccc(OC(F)F)cc3)c(-c3c(F)cc(OC)cc3F)n2C)c1 [Example 91, N-(5-(2,6-difluoro-4-methoxyphenyl)-2-(4-methoxy-6-(pyrrolidin-1-yl)pyridin-2-yl)-1-methyl-3-oxo-2,3-dihydro-1H-pyrazol-4-yl)-4-(difluoromethoxy)benzamide] — 2.5-fold higher, 20 nM
- COc1cc(F)c(-c2c(NC(=O)c3ccc(OC(F)F)cc3)c(=O)n(-c3cccc(N4CCN(CCO)CC4)n3)n2C)c(F)c1 [Example 107, N-[5-(2,6-difluoro-4-methoxyphenyl)-2-{6-[4-(2-hydroxyethyl)piperazin-1-yl]pyridin-2-yl}-1-methyl-3-oxo-2,3-dihydro-1H-pyrazol-4-yl]-4-(difluoromethoxy)benzamide] — 1.6-fold lower, 5 nM
- COc1cc(N2CC(C)(O)C2)nc(-n2c(=O)c(NC(=O)c3ccc(OC(F)F)cc3)c(-c3c(F)cc(OC)cc3F)n2C)c1 [Example 96, N-[5-(2,6-difluoro-4-methoxyphenyl)-2-[6-(3-hydroxy-3-methylazetidin-1-yl)-4-methoxypyridin-2-yl]-1-methyl-3-oxo-2,3-dihydro-1H-pyrazol-4-yl]-4-(difluoromethoxy)benzamide] — within 1.5-fold, 7 nM
- COc1cc(F)c(-c2c(NC(=O)c3ccc(OC(F)F)cc3)c(=O)n(-c3cc(C(F)F)ccn3)n2C)c(F)c1 [Example 76, N-[5-(2,6-difluoro-4-methoxyphenyl)-2-[4-(difluoromethyl)pyridin-2-yl]-1-methyl-3-oxo-2,3-dihydro-1H-pyrazol-4-yl]-4-(difluoromethoxy)benzamide] — 1.5-fold higher, 12 nM
- COc1cc(NCCO)nc(-n2c(=O)c(NC(=O)c3ccc(OC(F)F)cc3)c(-c3c(F)cc(OC)cc3F)n2C)c1 [Example 94, N-[5-(2,6-difluoro-4-methoxyphenyl)-2-{6-[(2-hydroxyethyl)amino]-4-methoxypyridin-2-yl}-1-methyl-3-oxo-2,3-dihydro-1H-pyrazol-4-yl]-4-(difluoromethoxy)benzamide] — within 1.5-fold, 6 nM
- COc1cc(CO)nc(-n2c(=O)c(NC(=O)c3ccc(OC(F)F)cc3)c(-c3c(F)cc(OC)cc3F)n2C)c1 [Example 90, N-[5-(2,6-difluoro-4-methoxyphenyl)-2-[6-(hydroxymethyl)-4-methoxypyridin-2-yl]-1-methyl-3-oxo-2,3-dihydro-1H-pyrazol-4-yl]-4-(difluoromethoxy)benzamide] — the same, 8 nM
- COc1cc(C2CCNCC2)nc(-n2c(=O)c(NC(=O)c3ccc(OC(F)F)cc3)c(-c3c(F)cc(OC)cc3F)n2C)c1 [Example 367, N-(5-(2,6-Difluoro-4-methoxyphenyl)-2-(4-methoxy-6-(piperidin-4-yl)pyridin-2-yl)-1-methyl-3-oxo-2,3-dihydro-1H-pyrazol-4-yl)-4-(difluoromethoxy)benzamide] — 8-fold lower, 1 nM

Target: T2, human FPR1 (Homo sapiens, UniProt P21462)
T2 sequence (P21462 1-350): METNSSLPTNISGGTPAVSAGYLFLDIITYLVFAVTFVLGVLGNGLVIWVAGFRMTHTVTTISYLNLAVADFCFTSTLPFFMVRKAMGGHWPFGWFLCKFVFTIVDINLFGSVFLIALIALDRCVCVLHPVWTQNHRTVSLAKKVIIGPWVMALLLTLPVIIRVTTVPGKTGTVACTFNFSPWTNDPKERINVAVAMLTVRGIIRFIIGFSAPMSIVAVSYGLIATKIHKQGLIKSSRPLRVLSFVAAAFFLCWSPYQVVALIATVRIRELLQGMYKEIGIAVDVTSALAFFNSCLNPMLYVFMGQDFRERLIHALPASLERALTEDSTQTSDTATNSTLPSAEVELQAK
Assay: FPR1 cyclic adenosine monophosphate (cAMP) assay
Format: cell-based
Settings: CHO cells overexpressing human FPR1; forskolin 10 μM; inhibition of cAMP production; HTRF; read-out: hFPR1 cAMP2 EC50
Text: as §1, §2

Point of comparison: `COc1cc(O)nc(-n2c(=O)c(NC(=O)c3ccc(OC(F)F)cc3)c(-c3c(F)cc(OC)cc3F)n2C)c1` [Example 326, N-(5-(2,6-Difluoro-4-methoxyphenyl)-2-(6-hydroxy-4-methoxypyridin-2-yl)-1-methyl-3-oxo-2,3-dihydro-1H-pyrazol-4-yl)-4-(difluoromethoxy)benzamide], EC50 1600 nM. Against it:
- COc1cc(F)c(-c2c(NC(=O)c3ccc(OC(F)F)cc3)c(=O)n(-c3cccc(F)c3C#N)n2C)c(F)c1 [Example 178, N-[2-(2-cyano-3-fluorophenyl)-5-(2,6-difluoro-4-methoxyphenyl)-1-methyl-3-oxo-2,3-dihydro-1H-pyrazol-4-yl]-4-(difluoromethoxy)benzamide] — higher, > 10000 nM
- COc1cc(F)c(-c2c(NC(=O)c3ccc(OC(F)F)cc3)c(=O)n(-c3cc(OC(C)C)cc(OCCO)n3)n2C)c(F)c1 [Example 378, N-(5-(2,6-Difluoro-4-methoxyphenyl)-2-(6-(2-hydroxyethoxy)-4-isopropoxypyridin-2-yl)-1-methyl-3-oxo-2,3-dihydro-1H-pyrazol-4-yl)-4-(difluoromethoxy)benzamide] — 64-fold lower, 25 nM

Source: patent US12577206B2 (BRISTOL-MYERS SQUIBB COMPANY, priority 2020, dated 2026)
